From patent US20230107216A1, “PANTETHEINE DERIVATIVES AND USES THEREOF” (Comet Therapeutics, Inc., priority 2018, published 2023) come the findings set out here.

The subject of assay [1] is tyrosine hydroxylase positive mesencephalic neurons injured by 6-OHDA. As to the kind of experiment: Neuroprotective effect on damage induced by 6-OHDA on culture of mesencephalic neurons. Format: cell-based. Particulars: Rattus norvegicus, Neuron, 6-OHDA 15 μM, 48h, read-out: % reversion of TH positive neurons (6-OHDA-mediated degradation of dopaminergic neurons). The method, then: The protective effect of compounds of the present disclosure was determined on 6-OHDA-mediated injury on mesencephalon neuronal cultures.
(§1) A female Wistar rat (Janvier; France) of 15 days gestation was terminated by cervical dislocation, the fetuses were removed from the uterus and their brains were harvested and placed in ice-cold medium (Leibovitz's L15 medium, Gibco). Only ventral mesencephalic flexure was used for the cell preparations. The midbrain was dissociated by trypsinization. The reaction was stopped, and the suspension was triturated and centrifuged. The pellet of dissociated cells was resuspended in chemically defined medium consisted of Neurobasal (Gibco, 21103049), containing B27 supplement (Gibco, A3582801) and L-glutamine (Gibco, 25030081), 10 ng/ml (BDNF; Pepro Tech, France, 450-02) and 1 ng/ml (GDNF; Pepro Tech, 450-51).
(§2) Viable primary rat embryo mesencephalic cells were counted and seeded on 96-multi-wells plate precoated with poly-L-lysine. Cells were maintained in a humidified incubator at 37° C. in 5% CO2-95% air atmosphere and medium changed on day 2. On day 6, the culture medium was removed and replaced by new media without neurotrophic factors containing the compounds of the present disclosure (50-10 μM) or vehicle (0.1% DMSO). After 1h exposure, injury of mesencephalon neuronal cultures was induced by 6-OHDA (15 μM) for further 48h. A mixture of the growth factors GDNF (1 ng/ml) and BDNF (10 ng/ml) were used as reference compound. On day 8, the tyrosine hydroxylase positive neurons were evaluated. Cultures were fixed 30 min at 4° C. with paraformaldehyde in PBS (4%, Sigma). After, cells were permeabilized with 0.1% Triton X100 for 30 min, saturated with PBS containing 3% of BSA (bovine serum albumin) and incubated 2h with anti-tyrosine hydroxylase antibody (Sigma, 1:10000; clone TH-2) at 1/10000 in PBS containing 0.5% of BSA. Cells were washed three times with PBS containing 0.5% of BSA and incubated 1h with goat anti mouse antibody coupled with AF488 (Invitrogen A11001) diluted at 1/1000 in PBS containing 0.5% of BSA. Finally, nuclei were stained with DAPI (Thermo fisher, D1306) at 1/1000 in PBS containing 0.5% of BSA. After rinsing with PBS, the plate was visualized and examined with Cell Insight HCS (Thermo Scientific) to determine the number of tyrosine hydroxylase positive cells per well.
(§3) The results for each well were expressed as a percentage by setting the density of tyrosine hydroxylase positive cells under control conditions to 100%. Then the result for each condition was reported as mean±SEM from 4 independent cultures.
(§4) A global analysis of the data was performed using a one-way analysis of variance (ANOVA), followed by Fisher's Protected Least Significant Difference when applicable. The level of significance was set to p<0.05.

The test system of assay [2] is tyrosine hydroxylase positive mesencephalic neurons injured by MPP+. The assay is described as follows: Neuroprotective effect on damage induced by MPP+ on culture of mesencephalic neurons. Format: cell-based. Particulars: Rattus norvegicus, Neuron, MPP+ 50 μM, 48h, read-out: % reversion of TH positive neurons (MPTP-mediated degradation of dopaminergic neurons).
Source text: as §1, with “(Gibco),” for “(Gibco, 21103049),”, “(Gibco)” for “(Gibco, A3582801)”, “(Gibco),” for “(Gibco, 25030081),”, “France)” for “France, 450-02)”, “Tech).” for “Tech, 450-51).”
as §2, with “MPP^+ (50” for “6-OHDA (15”, “Thermo Scientific, 28908).” for “Sigma).”, “DAPI” for “DAPI (Thermo fisher, D1306)”
as §3, §4

The subject of assay [3] is Bronchial epithelial cells co-cultured with dermal fibroblast (BF4T system). The assay is described as follows: BioMAP BF4T system (TNFα and IL-4). Format: cell-based, human. As to conditions: for activation at 10 µM / activation at 1 µM: Homo sapiens, 24 h, read-out: % increase in VCAM-1.
[4] abbreviates: 10 uM, procedure of Example 830.

On to `CC(C)(CO)[C@@H](O)C(=O)NCCC(=O)NCCSC(=O)CCCN` [Compound 370, (2R)—N-[2-([2-[(4-aminobutanoyl)sulfanyl]ethyl]carbamoyl)ethyl]-2,4-dihydroxy-3,3-dimethylbutanamide], for which the inhibition at 50 µM in assay [1] is at least 30%.

`CC(C)(CO)[C@@H](O)C(=O)NCCC(=O)NCCSC(=O)CCC(=O)O` [Compound 1, (R)-4-((2-(3-(2,4-dihydroxy-3,3-dimethylbutanamido)propanamido)ethyl)thio)-4-oxobutanoic acid]: the inhibition at 10 µM in assay [1] was at least 10%; in assay [2] it was at least 30%.

Consider `C[C@@H](O)CC(=O)SCCNC(=O)CCNC(=O)[C@H](O)C(C)(C)CO` [Compound 38, S-2-{3-[(R)-2,4-dihydroxy-3,3-dimethylbutyrylamino]propionylamino} ethyl (R)-3-hydroxybutanethioate], for which the inhibition at 10 µM in assay [1] was at least 30%; in assay [2] it was at least 60%.

`COC(=O)CCC(=O)SCCNC(=O)CCNC(=O)[C@H](OC(=O)CNC(C)=O)C(C)(C)CO` [Compound 1298, methyl 4-[(2-[3-[(2R)-2-[(2-acetamidoacetyl)oxy]-4-hydroxy-3,3-dimethylbutanamido]propanamido]ethyl)sulfanyl]-4-oxobutanoate]: the activation at 10 µM in assay [3] (setting [4]) is at least 10%.

As for `C[C@@H](O)CC(=O)CC(=O)SCCNC(=O)CCNC(=O)[C@H](O)C(C)(C)CO` [Compound 42, (2R)-2,4-dihydroxy-N-[2-[(2-[[(5R)-5-hydroxy-3-oxohexanoyl]sulfanyl]ethyl)carbamoyl]ethyl]-3,3-dimethylbutanamide], the inhibition at 50 µM in assay [1] was at least 30%. The inhibition at 10 µM in assay [2] was at least 60%. For the same molecule, the “% decrease in IL-1α” value in assay [3] (10 uM) is recorded as at least 10%. In assay [3] (setting [4]), the “% increase in Eotaxin-3” value was at least 10%, the “% increase in MMP-3” value is at least 10%, the “% increase in keratin 8/18” value is at least 10% and the activation at 10 µM is at least 10%.

Regarding `COC(=O)CC(C(C)=O)C(=O)SCCNC(=O)CCNC(=O)[C@H](O)C(C)(C)CO` (some centres unmarked) [Compound 410], in assay [2], the inhibition at 10 µM was at least 60%.

As to `CC(=O)SCCNC(=O)CCNC(=O)[C@H](O)C(C)(C)COC(=O)CN` [Compound 560, (3R)-3-[(2-[[2-(acetylsulfanyl)ethyl]carbamoyl]ethyl)carbamoyl]-3-hydroxy-2,2-dimethylpropyl 2-aminoacetate], the inhibition at 10 µM in assay [1] and in assay [2] was at least 30% throughout.

For `CC(C)(CO)[C@@H](O)C(=O)NCCC(=O)NCCSC(=O)[C@@H](N)Cc1ccc(O)c(O)c1` [Compound 371, (2R)—N-[2-[(2-[[(2S)-2-amino-3-(3,4-dihydroxyphenyl)propanoyl]sulfanyl]ethyl)carbamoyl]ethyl]-2,4-dihydroxy-3,3-dimethylbutanamide], the inhibition at 50 µM in assay [1] was at least 30%. Also, the inhibition at 10 µM in assay [2] is at least 60%. Besides, in assay [3] (1 uM, procedure of Example 830), the “% increase in MCP-1” value is listed as at least 10%, the “% increase in MMP-9” value is listed as at least 10% and the activation at 1 µM was at least 10%. In addition, the “% increase in Eotaxin-3” value in assay [3] (setting [4]) was at least 10%.

As to `CC(C)(COC(=O)OCC[N+](C)(C)C)[C@@H](O)C(=O)NCCC(=O)NCCSC(=O)CCC(=O)O` [Compound 116, [2-([[(3R)-3-[[2-([2-[(3-carboxypropanoyl)sulfanyl]ethyl]carbamoyl)ethyl]carbamoyl]-3-hydroxy-2,2-dimethylpropoxy]carbonyl]oxy)ethyl]trimethylazanium], in assay [1], the inhibition at 10 µM was at least 30%. In assay [2], the inhibition at 10 µM was at least 30%. In assay [3] (1 uM, procedure of Example 830), the “% increase in MMP-3” value is at least 10% and the “% increase in keratin 8/18” value was at least 10%. The “% decrease in IL-1α” value in assay [3] (10 uM) is at least 10%. Also, the activation at 10 µM in assay [3] (setting [4]) is at least 10%.

For `CCCCCCC(=O)SCCNC(=O)CCNC(=O)[C@H](O)C(C)(C)CO` [Compound 372, (2R)—N-(2-[[2-(heptanoylsulfanyl)ethyl]carbamoyl]ethyl)-2,4-dihydroxy-3,3-dimethylbutanamide], the activation at 1 µM in assay [3] (1 uM, procedure of Example 830) is at least 10%.

In the case of `COC(=O)CCC(=O)SCCNC(=O)CCNC(=O)[C@H](OC(=O)CN)C(C)(C)CO` [Compound 1294, methyl 4-[(2-[3-[(2R)-2-[(2-aminoacetyl)oxy]-4-hydroxy-3,3-dimethylbutanamido]propanamido]ethyl)sulfanyl]-4-oxobutanoate], the “% decrease in tPA” value in assay [3] (setting [4]) was at least 10%.

Take `CC(=O)SCCNC(=O)CCNC(=O)[C@H](O)C(C)(C)COC(=O)[C@H](C)N` [Compound 502, (3R)-3-[(2-[[2-(acetylsulfanyl)ethyl]carbamoyl]ethyl)carbamoyl]-3-hydroxy-2,2-dimethylpropyl (2S)-2-aminopropanoate]: the “% decrease in IL-1α” value in assay [3] (10 uM) was at least 10%. For the same molecule, the activation at 1 µM in assay [3] (1 uM, procedure of Example 830) is at least 10%.

In the case of `COC(=O)CC(SCCNC(=O)CCNC(=O)[C@H](O)C(C)(C)COC(C)=O)C(=O)OC` (stereo partly drawn) [Compound 149, 1,4-dimethyl 2-[(2-[3-[(2R)-4-(acetyloxy)-2-hydroxy-3,3-dimethylbutanamido]propanamido]ethyl)sulfanyl]butanedioate], the “% decrease in MMP-9” value in assay [3] (1 uM, procedure of Example 830) is at least 10%. In addition, in assay [3] (setting [4]), the “% increase in Eotaxin-3” value is on record as at least 10% and the activation at 10 µM was at least 10%.

On to `CC(=O)OCC(C)(C)[C@@H](OC(C)=O)C(=O)NCCC(=O)NCCSC(C)=O` [Compound 1264, (1R)-3-(acetyloxy)-1-[(2-[[2-(acetylsulfanyl)ethyl]carbamoyl]ethyl)carbamoyl]-2,2-dimethylpropyl acetate], for which, in assay [3] (1 uM, procedure of Example 830), the activation at 1 µM is at least 10%.

On to `CC(=O)OCC(C)(C)[C@@H](O)C(=O)NCCC(=O)NCCSC(=O)CC(=O)CCC(=O)O` [Compound 140, 6-[(2-[3-[(2R)-4-(acetyloxy)-2-hydroxy-3,3-dimethylbutanamido]propanamido]ethyl)sulfanyl]-4,6-dioxohexanoic acid], for which, in assay [1], the inhibition at 50 µM is at least 30%. Moreover, in assay [2], the inhibition at 10 µM was at least 60%.
